Tests used:
[1] = test system: miR-21-5p; assay: qRT-PCR microRNA assay in HepG2 cells; type: cell-based, human; details: HepG2, 40 μM berberine
Procedure: (§1) The human HepG2 cells and HEK 293T cells used in the following examples were originally obtained from the American Tissue Culture Collection (ATCC, USA). The human HCC HepG2 cell line was cultured in Minimum Essential Medium Eagle (Sigma) supplemented with 10% fetal bovine serum (FBS) (Invitrogen), 2.2 g/L of sodium bicarbonate (Sigma), 0.1 mM of non-essential amino acids (Caisson), 1 mM of sodium pyruvate (Invitrogen), and 10 of ml/L penicillin-streptomycin-amphotericin solution (Biological Industries). Human HEK-293T cells were maintained in high-glucose Dulbecco's modified eagle medium (Invitrogen) supplemented with 10% FBS and 3.7 g/L of sodium bicarbonate (Sigma). Both cell lines were cultured at 37° C. and 5% CO2. A 50 mM stock solution of berberine chloride (Sigma-Aldrich) was prepared in dimethyl sulfoxide (DMSO). Cells were treated with 40 μM of berberine chloride or 0.08% DMSO as the control. For induction of lipid droplets formation in cultured cells, 200 μM of oleic acid (Sigma-Aldrich) was added into the culture medium for 24 h. Total RNA was extracted using a TRIZOL reagent (Invitrogen) according to the manufacturer's protocol. The total RNA quantity was measured using a NanoDrop ND-1000 spectrophotometer (Nanodrop Technologies). The total RNA quality and integrity were assayed using an Agilent 2100 bioanalyzer with an RNA 6000 nano kit (Agilent Technologies). […] The microRNA expression levels were normalized to RNU6B levels.

[2] = test system: miR-21-3p; assay: qRT-PCR microRNA assay in HepG2 cells; type: cell-based, human; details: HepG2, 40 μM berberine
Procedure: as §1

[3] = test system: hsa-miR-21-3p; assay: miRNA microarray profiling of berberine-treated primary human hepatocytes; type: cell-based; details: PHHs from 3 donors, 40 μM berberine, 2 h
Procedure: The primary human hepatocytes from Caucasian donors were purchased from Invitrogen and cultured following the manufacturer's instructions. The hepatocytes were thawed and transferred into cryopreserved hepatocytes recovery medium (CM7000, Invitrogen), centrifuging at room temperature, 100×g for 10 min. Then, the hepatocytes were diluted to seeding density with plating medium (CM3000, Invitrogen) and added into collagen I-coated plates (Invitrogen). These plates were incubated at 37° C. for 4-6 hours under 5% CO2 for forming a monolayer. Then, plating medium was replaced by overlay incubation medium (CM4000 and 0.35 mg/mL Geltrex™ Matrix, Invitrogen), and the incubation medium was replaced daily. In the following examples, hepatocytes form 3 to 4 donors were used for experiments.
A 50 mM stock solution of berberine chloride (Sigma-Aldrich) was prepared in dimethyl sulfoxide (DMSO). […]
Total RNA was extracted using a TRIZOL reagent (Invitrogen) according to the manufacturer's protocol. The total RNA quantity was measured using a NanoDrop ND-1000 spectrophotometer (Nanodrop Technologies). […]
The miRNA profiling was performed using an Agilent human miRNA Microarray R14 V2 containing 866 human miRNAs. […] Microarrays were scanned following the Agilent microarray scanner protocol, and image analysis and quantification were performed using the Agilent Feature Extraction software (Agilent Technologies). […]

[4] = test system: MAT2B 3′ UTR; assay: Dual luciferase reporter assay in HEK 293T cells; type: cell-based, human
Procedure: (§2) Full-length 3′ UTRs of MAT2A and MAT2B were amplified from the genomic DNA of HepG2 cells through PCR.
(§3) The PCR products were then cloned into the pMIR-REPORT Luciferase miRNA Expression Reporter Vector (Invitrogen), and all inserted sequences in the 3′ UTR constructs were checked using the ABI PRISM DNA sequencer.
(§4) The mutagenesis of the target sequences of hsa-miR-21-3p in MAT2A and MAT2B 3′ UTRs was performed using the QuikChange site-directed mutagenesis kit (Agilent) according to the manufacturer's standard protocol.
(§5) All mutated sequences, including Site 1, Site 2 and the double mutation of the MAT2A and the 3′ UTR mutant construct of MAT2B, were checked through DNA sequencing.
(§6) The HEK-293T and HepG2 cells were seeded at a density of 5×10^4 cells per well in a 24-well culture plate the day before transfection. The HEK-293T and HepG2 cells were tri-transfected with (1) any one of the above-mentioned pMIR-REPORT-3′ UTR construction (300 ng), (2) the control Renilla luciferase reporter plasmid pRL-TK from Promega (10 ng), and (3) 50 nM of hsa-miR-21-3p mimic or negative-control mimic by using the Lipofectamine 2000 transfection reagent (Invitrogen) according to the manufacturer's instructions. Luciferase assays were performed after transfection for 48 h by using the Dual Luciferase reporter assay kit (Promega) and the Paradigm detection platform (Beckman) according to the manufacturer's protocol. The firefly luciferase activity was normalized relative to the Renilla luciferase activity.

[5] = test system: MAT2A 3′ UTR; assay: Dual luciferase reporter assay in HEK 293T cells; type: cell-based, human
Procedure: as §2, §3, §4, §5, §6

[6] = test system: intracellular malonyl-CoA; assay: Measurement of intracellular malonyl-CoA concentration in PHH cells; type: cell-based, human; details: 72-h mimic transfection
Procedure: After transfection with 50 nM of miR-21-3p mimic or the negative-control mimic for 72 h, the PHH cells and HepG2 cells were trypsinized. The intracellular malonyl-CoA concentration was measured using the malonyl-CoA ELISA Kit (MyBioSource) according to the manufacturer's instructions.

[7] = test system: ACACA; assay: qRT-PCR mRNA expression in HepG2 cells; type: cell-based, human; details: HepG2, mimic transfection, 24 h
Procedure: The human HepG2 cells and HEK 293T cells used in the following examples were originally obtained from the American Tissue Culture Collection (ATCC, USA). The human HCC HepG2 cell line was cultured in Minimum Essential Medium Eagle (Sigma) supplemented with 10% fetal bovine serum (FBS) (Invitrogen), 2.2 g/L of sodium bicarbonate (Sigma), 0.1 mM of non-essential amino acids (Caisson), 1 mM of sodium pyruvate (Invitrogen), and 10 of ml/L penicillin-streptomycin-amphotericin solution (Biological Industries). Human HEK-293T cells were maintained in high-glucose Dulbecco's modified eagle medium (Invitrogen) supplemented with 10% FBS and 3.7 g/L of sodium bicarbonate (Sigma). Both cell lines were cultured at 37° C. and 5% CO2. A 50 mM stock solution of berberine chloride (Sigma-Aldrich) was prepared in dimethyl sulfoxide (DMSO). Cells were treated with 40 μM of berberine chloride or 0.08% DMSO as the control. For induction of lipid droplets formation in cultured cells, 200 μM of oleic acid (Sigma-Aldrich) was added into the culture medium for 24 h. Total RNA was extracted using a TRIZOL reagent (Invitrogen) according to the manufacturer's protocol. The total RNA quantity was measured using a NanoDrop ND-1000 spectrophotometer (Nanodrop Technologies). The total RNA quality and integrity were assayed using an Agilent 2100 bioanalyzer with an RNA 6000 nano kit (Agilent Technologies). Total RNAs (1 μg) were reverse-transcribed into cDNA by using M-MuLV Reverse Transcriptase (Thermo) and Oligo(dT)12-18 primers (Invitrogen) according to the manufacturer's protocol. The cDNA were then used for a real-time PCR with a LightCycler 480 SYBR Green I Master (Roche) by using primers shown in the following Table 1. The gene expression levels were normalized to GAPDH levels. […] Cells were incubated for 24 h or 48 h with a microRNA mimic or inhibitor prior to RNA purification for gene expression analysis, and were incubated for 72 h for protein expression analysis.

[8] = wild-type 3′ UTR, 50 nM mimic, 48 h

Compound	miR-21-5p level increase (qRT-PCR) ([1]; 2 h)	miR-21-5p expression change (qRT-PCR) ([1]; 4 h and 8 h)	miR-21-3p level increase (qRT-PCR) ([2]; 1 h vs untreated control)	miR-21-3p level increase (qRT-PCR) ([2]; 2 h (peak) vs untreated control)	miR-21-3p level increase (qRT-PCR) ([2]; 8 h vs untreated control)	hsa-miR-21-3p expression increase (miRNA microarray), mean [3]	luciferase reporter expression change, mutated MAT2B 3′ UTR ([4]; seed match (+399-418) mutated)	luciferase reporter expression decrease, MAT2B 3′ UTR [4, 8]	luciferase reporter expression decrease, Site 1 mutated MAT2A 3′ UTR ([5]; Site 1 (+180-200) mutated)	luciferase reporter expression decrease, MAT2A 3′ UTR [5, 8]	intracellular malonyl-CoA concentration decrease [6]	decrease in mRNA expression of ACACA [7]
COc1ccc2cc3[n+](cc2c1OC)CCc1cc2c(cc1-3)OCO2 [berberine]	2 fold	no significant differences	2.1 fold	3.5 fold	2.8 fold	3.36 fold	–	–	–	–	–	–
hsa-miR-21-3p (CAACACCAGUCGAUGGGCUGU; listed as RNA, chemistry not given here) [miR-21-3p mimic]	–	–	–	–	–	–	remained unchanged	2.3 fold	1.5 fold	1.6 fold	2.2 fold	44%

Reference: patent US9469854B2, “Pharmaceutical composition for treating liver diseases” (Academia Sinica, priority 2014, dated 2016)
